Assay results reported in ChEMBL document CHEMBL4196007, “Design, synthesis and biological evaluation of novel 4-aminoquinazolines as dual target inhibitors of EGFR-PI3Kα” (Eur J Med Chem, 2018).

How the values were obtained:
HCT-116 = test: Cytotoxicity against human HCT116 cells after 72 hrs by SRB assay; type: functional, cell-based; details: HCT-116, 72 h
MCF7 = test: Cytotoxicity against human MCF7 cells after 72 hrs by SRB assay; type: functional, cell-based; details: MCF7, 72 h
SNU-638 = test: Cytotoxicity against human SNU638 cells after 72 hrs by SRB assay; type: functional, cell-based; details: SNU-638, 72 h
BT-549 = test: Cytotoxicity against human BT549 cells after 72 hrs by SRB assay; type: functional, cell-based; details: BT-549, 72 h
A549 = test: Cytotoxicity against human A549 cells after 72 hrs by SRB assay; type: functional, cell-based; details: A549, 72 h
SK-HEP1 = test: Cytotoxicity against human SKHEP1 cells after 72 hrs by SRB assay; type: functional, cell-based; details: SK-HEP1, 72 h
[1] = target: T1, Phosphatidylinositol 4,5-bisphosphate 3-kinase catalytic subunit delta isoform (Homo sapiens, UniProt O00329); test: Inhibition of PI3K p110delta (unknown origin) using PIP2 as substrate by ELISA
T1 sequence (O00329 whole entry): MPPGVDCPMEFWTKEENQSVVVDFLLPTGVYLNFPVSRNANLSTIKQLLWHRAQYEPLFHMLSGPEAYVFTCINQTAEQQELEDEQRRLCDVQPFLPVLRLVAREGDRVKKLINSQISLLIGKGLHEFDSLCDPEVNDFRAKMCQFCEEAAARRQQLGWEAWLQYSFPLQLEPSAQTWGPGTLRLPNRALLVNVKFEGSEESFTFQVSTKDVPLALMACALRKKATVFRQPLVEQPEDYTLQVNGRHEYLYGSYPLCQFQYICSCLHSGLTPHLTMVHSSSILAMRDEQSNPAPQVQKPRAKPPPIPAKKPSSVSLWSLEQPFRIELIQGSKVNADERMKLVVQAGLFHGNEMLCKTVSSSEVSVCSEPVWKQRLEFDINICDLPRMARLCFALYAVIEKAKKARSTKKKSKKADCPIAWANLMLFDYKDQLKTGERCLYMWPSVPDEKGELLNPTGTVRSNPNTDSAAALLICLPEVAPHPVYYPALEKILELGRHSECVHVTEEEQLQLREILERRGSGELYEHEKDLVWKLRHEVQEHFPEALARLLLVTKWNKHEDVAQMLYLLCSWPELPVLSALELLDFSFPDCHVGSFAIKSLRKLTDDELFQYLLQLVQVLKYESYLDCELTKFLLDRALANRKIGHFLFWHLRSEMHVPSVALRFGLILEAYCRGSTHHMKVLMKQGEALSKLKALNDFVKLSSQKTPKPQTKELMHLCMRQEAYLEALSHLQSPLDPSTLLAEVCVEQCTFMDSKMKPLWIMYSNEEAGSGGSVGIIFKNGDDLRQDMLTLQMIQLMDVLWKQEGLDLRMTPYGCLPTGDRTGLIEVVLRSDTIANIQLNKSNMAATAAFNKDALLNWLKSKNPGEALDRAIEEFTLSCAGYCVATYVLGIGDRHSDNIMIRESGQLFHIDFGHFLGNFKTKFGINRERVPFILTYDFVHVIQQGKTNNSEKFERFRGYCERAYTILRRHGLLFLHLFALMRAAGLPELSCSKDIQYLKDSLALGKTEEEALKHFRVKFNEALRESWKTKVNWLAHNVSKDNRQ

[2] = target: Epidermal growth factor receptor (Homo sapiens, UniProt P00533); test: Inhibition of EGFR (unknown origin) using FAM-labeled peptide as substrate preincubated for 10 mins followed by substrate addition and measured after 1 hr by mobility shift assay
[3] = target: Phosphatidylinositol 4,5-bisphosphate 3-kinase catalytic subunit gamma isoform (Homo sapiens, UniProt P48736); test: Inhibition of PI3K p110gamma (unknown origin) using PIP2 as substrate by ELISA
[4] = target: Phosphatidylinositol 4,5-bisphosphate 3-kinase catalytic subunit beta isoform (Homo sapiens, UniProt P42338); test: Inhibition of PI3K p110beta (unknown origin) using PIP2 as substrate by ELISA
[5] = target: Phosphatidylinositol 4,5-bisphosphate 3-kinase catalytic subunit alpha isoform (Homo sapiens, UniProt P42336); test: Inhibition of PI3K p110alpha (unknown origin) using PIP2 as substrate by ELISA
Phosphatidylinositol 4,5-bisphosphate 3-kinase catalytic subunit alpha isoform, sequence (P42336 whole entry, canonical isoform): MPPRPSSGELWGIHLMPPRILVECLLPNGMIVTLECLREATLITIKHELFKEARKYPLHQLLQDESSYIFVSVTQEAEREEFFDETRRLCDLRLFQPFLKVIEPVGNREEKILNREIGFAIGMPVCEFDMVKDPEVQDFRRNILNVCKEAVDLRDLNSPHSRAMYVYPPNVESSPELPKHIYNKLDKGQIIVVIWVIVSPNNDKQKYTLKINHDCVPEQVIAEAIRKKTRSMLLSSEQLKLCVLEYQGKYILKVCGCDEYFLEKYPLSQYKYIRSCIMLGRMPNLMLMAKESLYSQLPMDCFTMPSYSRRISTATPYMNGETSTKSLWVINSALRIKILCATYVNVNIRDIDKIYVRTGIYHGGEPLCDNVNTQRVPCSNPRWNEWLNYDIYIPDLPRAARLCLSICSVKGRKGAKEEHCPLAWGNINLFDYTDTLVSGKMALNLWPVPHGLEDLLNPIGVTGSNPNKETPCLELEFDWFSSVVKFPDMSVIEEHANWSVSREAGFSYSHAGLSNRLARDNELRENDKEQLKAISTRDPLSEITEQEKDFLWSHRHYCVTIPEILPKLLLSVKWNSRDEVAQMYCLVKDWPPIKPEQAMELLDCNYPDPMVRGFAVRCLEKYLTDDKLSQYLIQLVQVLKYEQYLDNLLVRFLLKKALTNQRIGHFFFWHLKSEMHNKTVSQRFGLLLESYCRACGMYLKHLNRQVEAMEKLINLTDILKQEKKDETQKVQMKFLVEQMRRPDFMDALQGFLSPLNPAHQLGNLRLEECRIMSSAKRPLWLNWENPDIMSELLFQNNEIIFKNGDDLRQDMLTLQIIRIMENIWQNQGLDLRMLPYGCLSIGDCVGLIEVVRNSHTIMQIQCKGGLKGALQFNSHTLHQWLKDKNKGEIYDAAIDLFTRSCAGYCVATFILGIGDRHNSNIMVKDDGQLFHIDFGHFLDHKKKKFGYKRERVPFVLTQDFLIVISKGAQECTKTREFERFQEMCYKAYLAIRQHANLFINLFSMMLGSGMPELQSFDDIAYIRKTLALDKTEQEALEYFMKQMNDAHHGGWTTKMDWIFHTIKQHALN

Epidermal growth factor receptor, sequence (P00533 whole entry, canonical isoform): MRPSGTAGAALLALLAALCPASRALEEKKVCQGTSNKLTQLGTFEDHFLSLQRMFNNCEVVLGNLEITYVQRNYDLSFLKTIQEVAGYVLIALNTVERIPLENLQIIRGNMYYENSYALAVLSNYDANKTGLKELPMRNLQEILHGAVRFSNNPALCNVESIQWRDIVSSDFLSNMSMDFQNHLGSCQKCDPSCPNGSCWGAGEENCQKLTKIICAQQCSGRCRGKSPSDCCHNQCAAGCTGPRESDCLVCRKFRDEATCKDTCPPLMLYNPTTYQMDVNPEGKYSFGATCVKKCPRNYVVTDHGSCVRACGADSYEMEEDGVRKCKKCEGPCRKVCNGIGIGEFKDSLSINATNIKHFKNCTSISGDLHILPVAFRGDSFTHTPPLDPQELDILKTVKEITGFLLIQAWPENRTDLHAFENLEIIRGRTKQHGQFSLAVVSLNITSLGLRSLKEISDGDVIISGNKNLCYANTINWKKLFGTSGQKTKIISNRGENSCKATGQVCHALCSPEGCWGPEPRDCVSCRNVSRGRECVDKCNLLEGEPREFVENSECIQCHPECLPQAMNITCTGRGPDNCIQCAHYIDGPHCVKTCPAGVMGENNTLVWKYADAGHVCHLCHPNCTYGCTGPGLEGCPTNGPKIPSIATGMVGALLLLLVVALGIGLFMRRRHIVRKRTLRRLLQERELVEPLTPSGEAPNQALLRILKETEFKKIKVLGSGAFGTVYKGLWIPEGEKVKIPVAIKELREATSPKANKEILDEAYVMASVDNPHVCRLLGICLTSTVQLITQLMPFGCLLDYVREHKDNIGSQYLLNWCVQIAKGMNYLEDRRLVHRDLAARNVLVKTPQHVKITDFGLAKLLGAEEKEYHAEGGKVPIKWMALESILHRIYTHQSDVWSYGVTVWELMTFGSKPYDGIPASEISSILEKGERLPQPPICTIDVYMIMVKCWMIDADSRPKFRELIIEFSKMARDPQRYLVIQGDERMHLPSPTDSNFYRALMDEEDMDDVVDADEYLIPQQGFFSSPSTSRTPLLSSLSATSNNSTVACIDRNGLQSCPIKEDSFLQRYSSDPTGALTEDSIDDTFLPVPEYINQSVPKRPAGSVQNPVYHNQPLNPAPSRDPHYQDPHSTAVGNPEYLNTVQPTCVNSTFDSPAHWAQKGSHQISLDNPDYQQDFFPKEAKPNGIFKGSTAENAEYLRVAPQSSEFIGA
Phosphatidylinositol 4,5-bisphosphate 3-kinase catalytic subunit gamma isoform, sequence (P48736 whole entry, canonical isoform): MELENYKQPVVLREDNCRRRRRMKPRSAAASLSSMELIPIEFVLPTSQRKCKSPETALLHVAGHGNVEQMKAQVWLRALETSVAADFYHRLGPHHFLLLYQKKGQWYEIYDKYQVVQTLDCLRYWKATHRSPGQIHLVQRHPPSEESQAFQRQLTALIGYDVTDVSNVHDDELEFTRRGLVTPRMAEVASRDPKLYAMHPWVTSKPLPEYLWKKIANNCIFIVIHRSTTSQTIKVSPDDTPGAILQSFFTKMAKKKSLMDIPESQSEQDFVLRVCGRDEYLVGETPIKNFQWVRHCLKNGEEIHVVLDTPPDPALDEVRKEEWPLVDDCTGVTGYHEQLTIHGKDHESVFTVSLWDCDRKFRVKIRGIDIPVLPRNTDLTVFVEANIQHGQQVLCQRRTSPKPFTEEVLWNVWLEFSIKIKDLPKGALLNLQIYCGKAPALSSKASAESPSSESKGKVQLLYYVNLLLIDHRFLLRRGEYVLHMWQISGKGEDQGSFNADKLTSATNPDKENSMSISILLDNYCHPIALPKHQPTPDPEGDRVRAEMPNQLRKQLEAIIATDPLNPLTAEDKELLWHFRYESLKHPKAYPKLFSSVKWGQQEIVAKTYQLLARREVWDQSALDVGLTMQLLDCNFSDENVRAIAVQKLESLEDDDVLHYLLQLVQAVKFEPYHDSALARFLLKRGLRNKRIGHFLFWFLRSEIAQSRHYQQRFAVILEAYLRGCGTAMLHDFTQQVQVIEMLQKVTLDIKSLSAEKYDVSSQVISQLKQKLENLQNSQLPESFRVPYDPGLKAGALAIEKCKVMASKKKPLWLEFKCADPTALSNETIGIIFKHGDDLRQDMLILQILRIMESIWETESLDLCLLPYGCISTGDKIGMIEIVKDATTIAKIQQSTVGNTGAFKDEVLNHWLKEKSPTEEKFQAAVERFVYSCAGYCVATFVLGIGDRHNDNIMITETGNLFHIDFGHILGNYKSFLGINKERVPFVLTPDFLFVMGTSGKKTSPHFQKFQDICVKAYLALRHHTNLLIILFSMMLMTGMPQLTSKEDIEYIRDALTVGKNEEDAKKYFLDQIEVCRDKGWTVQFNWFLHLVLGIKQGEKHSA
Phosphatidylinositol 4,5-bisphosphate 3-kinase catalytic subunit beta isoform, sequence (P42338 whole entry, canonical isoform): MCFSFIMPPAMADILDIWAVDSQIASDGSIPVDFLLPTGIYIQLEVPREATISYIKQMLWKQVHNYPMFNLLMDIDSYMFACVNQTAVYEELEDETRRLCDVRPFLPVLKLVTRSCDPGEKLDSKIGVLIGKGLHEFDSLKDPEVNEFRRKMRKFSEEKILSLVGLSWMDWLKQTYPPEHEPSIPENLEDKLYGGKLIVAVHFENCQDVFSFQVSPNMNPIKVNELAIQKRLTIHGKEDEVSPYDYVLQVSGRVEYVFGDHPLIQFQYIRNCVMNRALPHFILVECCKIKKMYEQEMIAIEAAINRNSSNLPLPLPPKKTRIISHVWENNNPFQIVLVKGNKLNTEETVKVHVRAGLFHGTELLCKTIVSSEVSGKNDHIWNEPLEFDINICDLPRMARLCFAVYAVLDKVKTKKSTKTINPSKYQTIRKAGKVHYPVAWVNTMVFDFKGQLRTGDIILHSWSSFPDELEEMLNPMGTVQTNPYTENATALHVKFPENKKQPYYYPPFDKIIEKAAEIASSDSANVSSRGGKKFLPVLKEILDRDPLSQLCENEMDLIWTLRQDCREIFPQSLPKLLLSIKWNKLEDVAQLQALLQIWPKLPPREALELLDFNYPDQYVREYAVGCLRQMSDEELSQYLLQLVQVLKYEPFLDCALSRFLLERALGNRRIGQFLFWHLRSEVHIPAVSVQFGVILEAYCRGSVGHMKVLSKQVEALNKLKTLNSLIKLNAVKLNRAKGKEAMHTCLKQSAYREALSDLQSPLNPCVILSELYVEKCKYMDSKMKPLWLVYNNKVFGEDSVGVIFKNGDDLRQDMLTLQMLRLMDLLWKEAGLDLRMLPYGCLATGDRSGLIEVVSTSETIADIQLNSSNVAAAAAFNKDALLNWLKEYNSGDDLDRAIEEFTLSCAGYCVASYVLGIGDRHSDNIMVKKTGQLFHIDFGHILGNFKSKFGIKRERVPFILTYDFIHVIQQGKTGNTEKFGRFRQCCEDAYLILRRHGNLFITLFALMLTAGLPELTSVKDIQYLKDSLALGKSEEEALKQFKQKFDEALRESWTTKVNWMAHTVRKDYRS

SMILES | IC50 (HCT-116) | IC50 (MCF7) | IC50 (SNU-638) | IC50 (BT-549) | IC50 (A549) | IC50 (SK-HEP1) | IC50 [1] | IC50 [2] | IC50 [3] | IC50 [4] | IC50 [5]
Cn1c(=O)n(-c2ccc(C(C)(C)C#N)cc2)c2c3cc(-c4cnc5ccccc5c4)ccc3ncc21 [DACTOLISIB] | 0.84 µM | 1.33 µM | 1.24 µM | 0.74 µM | 0.62 µM | 1.82 µM |  |  |  |  | 
CCS(=O)(=O)Nc1cc(-c2ccc3ncnc(Nc4ccc(OC)c(OC)c4)c3c2)cnc1OC | 4.36 µM | 2.43 µM | 1.68 µM | 2.59 µM | 5.82 µM | 2.84 µM |  |  |  |  | 
CCS(=O)(=O)Nc1cc(-c2ccc3ncnc(Nc4ccc(OC(F)(F)F)cc4)c3c2)cnc1OC | 16.6 µM | 23.7 µM | 22.4 µM | 8.24 µM | 25.4 µM | 6.14 µM |  |  |  |  | 
CCCCS(=O)(=O)Nc1cc(-c2ccc3ncnc(Nc4cccc(C(=O)OCC)c4)c3c2)cnc1OC | 26.7 µM | 36.4 µM | 25.2 µM | 37.2 µM | 42.3 µM | 21.6 µM |  |  |  |  | 
CCS(=O)(=O)Nc1cc(-c2ccc3ncnc(Nc4ccc(F)cc4F)c3c2)cnc1OC | 4.01 µM | 1.61 µM | 2.05 µM | 2.48 µM | 4.71 µM | 2.49 µM |  |  |  |  | 
CCS(=O)(=O)Nc1cc(-c2ccc3ncnc(Nc4cccc(C(=O)OC)c4)c3c2)cnc1OC | 0.4 µM | 10.1 µM | 1.12 µM | 1.08 µM | 1.1 µM | 2.4 µM | 4.36 µM | 0.409 µM | 1.78 µM | 4.94 µM | 0.165 µM
CCS(=O)(=O)Nc1cc(-c2ccc3ncnc(Nc4cccc(F)c4)c3c2)cnc1OC | 3.94 µM | 8.02 µM | 2.76 µM | 2.76 µM | 9.94 µM | 1.85 µM |  |  |  |  | 
CCS(=O)(=O)Nc1cc(-c2ccc3ncnc(Nc4ccc(F)c(C(=O)OC)c4)c3c2)cnc1OC | 2.36 µM | 1.15 µM | 2.54 µM | 2.74 µM | 3.42 µM | 5.18 µM |  |  |  |  | 
CCS(=O)(=O)Nc1cc(-c2ccc3ncnc(Nc4ccc(Cl)c(C(=O)OC)c4)c3c2)cnc1OC | 3.13 µM | 1.43 µM | 2.2 µM | 2.36 µM | 2.13 µM | 7.06 µM |  |  |  |  | 
CCS(=O)(=O)Nc1cc(-c2ccc3ncnc(Nc4ccc(C(=O)OC)c(OC)c4)c3c2)cnc1OC | 1.69 µM | 10.9 µM | 3.44 µM | 3.76 µM | 3.35 µM | 0.83 µM |  |  |  |  | 
CCS(=O)(=O)Nc1cc(-c2ccc3ncnc(Nc4ccc(F)cc4)c3c2)cnc1OC | 3.16 µM | 6.51 µM | 2.4 µM | 3.12 µM | 7.62 µM | 1.47 µM |  |  |  |  | 
CCS(=O)(=O)Nc1cc(-c2ccc3ncnc(Nc4ccc(OCc5ccc(F)cc5)c(Cl)c4)c3c2)cnc1OC | 5.41 µM | 28.4 µM | 2.36 µM | 14.6 µM | 31.3 µM | 1.95 µM |  |  |  |  | 
CCCCS(=O)(=O)Nc1cc(-c2ccc3ncnc(Nc4ccc(F)c(Cl)c4)c3c2)cnc1OC | 9.99 µM | 65.8 µM | 5.35 µM | 56.8 µM | 77.1 µM | 53.8 µM |  |  |  |  | 
COC(=O)c1cccc(Nc2ncnc3ccc(-c4cnc(OC)c(NS(=O)(=O)c5ccc(F)cc5F)c4)cc23)c1 | 1.5 µM | 22.4 µM | 0.4 µM | 12.7 µM | 10.5 µM | 2.8 µM |  |  |  |  | 
CCS(=O)(=O)Nc1cc(-c2ccc3ncnc(Nc4ccc(OC)c(Cl)c4)c3c2)cnc1OC | 5.62 µM | 3.32 µM | 3.62 µM | 2.47 µM | 5.24 µM | 2.81 µM |  |  |  |  | 
CCS(=O)(=O)Nc1cc(-c2ccc3ncnc(Nc4ccc(F)nc4)c3c2)cnc1OC | 7.62 µM | 5.39 µM | 6.52 µM | 4.78 µM | 6.72 µM | 5.24 µM |  |  |  |  | 
CCS(=O)(=O)Nc1cc(-c2ccc3ncnc(Nc4ccc(OC)cc4)c3c2)cnc1OC | 3.49 µM | 1.79 µM | 3.97 µM | 1.88 µM | 3.58 µM | 1.61 µM |  |  |  |  | 
CCS(=O)(=O)Nc1cc(-c2ccc3ncnc(Nc4ccc(OC)nc4)c3c2)cnc1OC | 6.91 µM | 3.77 µM | 4.28 µM | 3.49 µM | 5.56 µM | 3.44 µM |  |  |  |  | 
